From the supplement of paper PMC10307832

Legend:
Assay in all cases: relative viability (nuclei count vs DMSO), 5 days (fraction); higher = more cells survive
[1] = compound: C[C@@]1(C(=O)Nc2ccc(F)nc2)CCCN1c1nc(Nc2cc(C3CC3)n[nH]2)c2cccn2n1 + Nc1nc2[nH]cc(CCc3ccc(C(=O)N[C@@H](CCC(=O)O)C(=O)O)cc3)c2c(=O)[nH]1 [Pemetrexed] (partner 0.2 µM)
In short: (§1)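 For relative viability, nuclei counts in treated wells were divided by those in vehicle wells. Lung cancer cell lines had been pin-tool dosed in 1536-well plates the day after seeding and cultured for 5 days, then fixed and stained in one step (final 0.05% Triton X-100, 1% formaldehyde, 1 ug/ml Hoechst) and imaged at 4×. Doses were one drug alone or a fixed anchor-drug dose plus five library-drug doses (not always all listed) in √10 steps, and values are duplicate-plate medians.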

[2] = compound: C[C@@]1(C(=O)Nc2ccc(F)nc2)CCCN1c1nc(Nc2cc(C3CC3)n[nH]2)c2cccn2n1 + CC(=O)Nc1cccc(-n2c(=O)n(C3CC3)c(=O)c3c(Nc4ccc(I)cc4F)n(C)c(=O)c(C)c32)c1 [Trametinib] (partner 0.02 µM)
In short: as §1

[3] = compound: C[C@@]1(C(=O)Nc2ccc(F)nc2)CCCN1c1nc(Nc2cc(C3CC3)n[nH]2)c2cccn2n1 + COc1cc2c(Oc3ccc(NC(=O)C4(C(=O)Nc5ccc(F)cc5)CC4)cc3F)ccnc2cc1OCCCN1CCOCC1 [Foretinib] (partner 0.25 µM)
In short: as §1

Motesanib + Pemetrexed = compound: CC1(C)CNc2cc(NC(=O)c3cccnc3NCc3ccncc3)ccc21 [Motesanib] + Nc1nc2[nH]cc(CCc3ccc(C(=O)N[C@@H](CCC(=O)O)C(=O)O)cc3)c2c(=O)[nH]1 [Pemetrexed] (partner 0.2 µM)
In short: as §1

| Cell Line | relative viability ([1]; first compound 0.04 µM) | relative viability ([1]; first compound 0.1265 µM) | relative viability ([1]; first compound 0.4 µM) | relative viability ([1]; first compound 1.265 µM) | relative viability ([2]; first compound 0.04 µM) | relative viability ([2]; first compound 0.1265 µM) | relative viability ([2]; first compound 0.4 µM) | relative viability ([2]; first compound 1.265 µM) | relative viability ([3]; first compound 0.04 µM) | relative viability ([3]; first compound 0.1265 µM) | relative viability ([3]; first compound 0.4 µM) | relative viability ([3]; first compound 1.265 µM) | relative viability (Motesanib + Pemetrexed; first compound 0.01 µM) | relative viability (Motesanib + Pemetrexed; first compound 0.03162 µM) | relative viability (Motesanib + Pemetrexed; first compound 0.1 µM) | relative viability (Motesanib + Pemetrexed; first compound 0.3162 µM) | relative viability (Motesanib + Pemetrexed; first compound 1 µM) |
| --- | --- | --- | --- | --- | --- | --- | --- | --- | --- | --- | --- | --- | --- | --- | --- | --- | --- |
| COR-L 105 | 1.07 | 0.658 | 0.865 | 1.1 | 0.44 | 0.42 | 0.439 | 0.399 | 0.887 | 0.993 | 0.828 | 1.01 | 1.19 | 0.96 | 1.34 | 1.12 | 1.33 |
| LK-2 | 0.175 | 0.195 |  | 0.156 | 0.426 | 1.15 | 0.416 | 0.495 | 0.731 | 0.945 | 0.671 | 0.979 | 0.234 | 0.288 | 0.208 | 0.256 | 0.171 |
| 201T | 0.324 | 0.285 | 0.294 | 0.304 | 0.718 | 0.663 | 0.637 | 0.676 | 0.747 | 0.629 | 0.353 | 0.573 | 0.307 | 0.326 | 0.318 | 0.296 | 0.342 |
| NCI-H596 | 0.494 | 0.497 | 0.431 | 0.487 | 0.912 | 0.72 | 0.654 | 0.748 | 0.731 | 0.752 | 0.649 | 0.972 | 0.509 | 0.503 | 0.444 | 0.306 | 0.358 |
| H3255 | 0.602 | 0.523 | 0.528 | 0.484 | 0.543 | 0.573 | 0.494 | 0.628 | 1 | 1.1 | 0.883 | 0.787 | 0.552 | 0.59 | 0.602 | 0.589 | 0.587 |
| NCI-H647 | 0.174 | 0.163 | 0.174 | 0.123 | 0.465 | 0.419 | 0.383 | 0.397 | 1.18 | 1.08 | 0.886 | 1.17 | 0.178 | 0.175 | 0.16 | 0.143 | 0.165 |
| NCI-H2023 | 0.252 | 0.137 | 0.152 | 0.0911 | 0.454 | 0.387 | 0.297 | 0.277 | 0.488 | 0.475 | 0.36 | 0.279 | 0.224 | 0.201 | 0.245 | 0.217 | 0.263 |
| NCI-H23 | 0.506 | 0.437 | 0.399 | 0.312 | 0.233 | 0.199 | 0.178 | 0.252 | 0.591 | 0.539 | 0.622 | 0.914 | 0.645 | 0.624 | 0.518 | 0.447 | 0.545 |
| NCI-H1944 | 0.605 | 0.554 | 0.497 | 0.544 | 0.352 | 0.363 | 0.284 | 0.384 | 0.764 | 0.676 | 0.496 | 0.649 | 0.58 | 0.628 | 0.565 | 0.554 | 0.442 |
| NCI-H1793 | 0.644 | 0.825 | 0.634 | 0.508 | 0.4 | 0.355 | 0.392 | 0.459 | 0.664 | 0.566 |  | 0.715 | 0.862 | 0.894 | 0.843 | 0.856 | 0.853 |
| NCI-H520 | 0.661 | 0.529 | 0.581 | 0.615 | 0.753 | 0.571 | 0.523 | 0.591 | 1.01 | 0.612 | 0.796 | 0.768 | 0.577 | 0.594 | 0.51 | 0.586 | 0.643 |
| NCI-H460 | 0.0607 | 0.0684 | 0.0535 | 0.0527 | 0.159 | 0.0315 | 0.0726 | 0.0967 | 1.06 | 0.939 | 1.03 | 0.87 | 0.0586 | 0.0647 | 0.0699 | 0.0738 | 0.0745 |
| EKVX | 0.415 | 0.307 | 0.349 | 0.356 | 0.433 | 0.227 | 0.355 | 0.288 | 0.684 | 0.751 | 0.602 | 0.253 | 0.414 | 0.377 | 0.368 | 0.394 | 0.406 |
| NCI-H358 | 0.15 | 0.155 | 0.117 | 0.137 | 0.129 | 0.106 | 0.112 | 0.101 | 0.471 | 0.385 | 0.202 | 0.183 | 0.161 | 0.162 | 0.169 | 0.164 | 0.166 |
| EPLC-272H | 0.358 | 0.291 | 0.349 | 0.23 | 0.266 | 0.252 | 0.234 | 0.231 | 0.57 |  | 0.558 | 0.796 | 0.656 | 0.285 | 0.254 | 0.273 | 0.243 |
| NCI-H1395 | 0.89 | 0.411 | 0.879 | 0.868 | 1.02 | 0.863 | 0.901 | 0.989 | 1.05 | 0.84 | 0.932 | 0.921 | 0.923 | 0.815 | 0.826 | 0.881 | 0.765 |
